# In US5025036A, “Catechol carboxylic acids” (Hoffmann-La Roche Inc., priority 1989, dated 1991):
# pIC50: −log10 of the molar value.
# How the values were obtained:
# [1] = test system: myeloperoxidase accumulation (acetic acid-induced colitis); assay: Acetic Acid-Induced Colitis in Rats, In Vivo; set-up: species or system male rats (Sprague-Dawley)
# Source text: The rat acetic acid-induced colitis bioassay has been described by J. E. Krawisz, et al. in Amer. J. Proc. Gastro. Col. Rec. Surg. 31: 11-18 (1980), and by P. Sharon and W. F. Stenson in Gastroenterolgy 88: 55-63 (1985) and 86: 453-460 (1984). Acetic acid-induced colitis is characterized by the movement of inflammatory cells into the colon, with the number of such cells in the mucosa being measured by the activity of myeloperoxidase, a marker enzyme for these cells. Positive desirable activity is indicated by a reduction in the high levels of myeloperoxidase caused by acetic acid. Male rats (Sprague-Dawley), weighing 150 to 300 g, were pretreated twice daily for two days with either the vehicle (water, or dimethylsulfoxide) or the test inhibitor compound suspended in water or dissolved in dimethylsulfoxide and orally administered. On the third day, the animals were dosed the same as on the previous two days, anesthetized with metofane, and 2 ml of 2.5% acetic acid was injected by syringe into the colonic lumen, followed immediately by 3 ml of air and a rinse consisting of 3 ml of phosphate-buffered saline (the acetic acid is present in the lumen for a sufficient period to cause inflammation without producing severe necrosis or irreversible damage). The animals were administered a second dose of the test compound in the same amount about 16 hours later. 24 hours after the acetic acid treatment, the animals were sacrificed, the colonic mucosa was surgically removed and homogenized in an aqueous buffer at pH 6 with a Tissumizer or similar device and myeloperoxidase was measured in the homogenate using o-phenylenediamine as a chromagen, as described by A. Voller, D. E. Bidwell and A. Bartlett in The Enzyme Linked Immunosorbent Assay (ELISA), Zoological Soc., London, 1979, pages 29-30. Control animals were pretreated with the vehicle and saline in place of acetic acid.
# [2] = molecular target: T1, Δ^5 -lipoxygenase from rat basophilic leukemia (RBL-1) cells (Rattus norvegicus, UniProt P12527); assay: In vitro test for Δ^5-lipoxygenase inhibitors (5-HETE radioimmunoassay); format: biochemical; conditions: for pIC50: RBL-1 5-LO, 5-HETE formation, read-out: Inhib. of Δ^5 Lipoxygenase IC50
# T1 construct: The isolated cytosolic fraction was stored in liquid N2 for up to 8 weeks without loss of 5-LO enzyme activity; endogenous in cells; host or cells: RBL-1 cells (ATCC CRL 1378), 113,000×g supernatant (cytosol)
# T1 sequence (P12527 1-673): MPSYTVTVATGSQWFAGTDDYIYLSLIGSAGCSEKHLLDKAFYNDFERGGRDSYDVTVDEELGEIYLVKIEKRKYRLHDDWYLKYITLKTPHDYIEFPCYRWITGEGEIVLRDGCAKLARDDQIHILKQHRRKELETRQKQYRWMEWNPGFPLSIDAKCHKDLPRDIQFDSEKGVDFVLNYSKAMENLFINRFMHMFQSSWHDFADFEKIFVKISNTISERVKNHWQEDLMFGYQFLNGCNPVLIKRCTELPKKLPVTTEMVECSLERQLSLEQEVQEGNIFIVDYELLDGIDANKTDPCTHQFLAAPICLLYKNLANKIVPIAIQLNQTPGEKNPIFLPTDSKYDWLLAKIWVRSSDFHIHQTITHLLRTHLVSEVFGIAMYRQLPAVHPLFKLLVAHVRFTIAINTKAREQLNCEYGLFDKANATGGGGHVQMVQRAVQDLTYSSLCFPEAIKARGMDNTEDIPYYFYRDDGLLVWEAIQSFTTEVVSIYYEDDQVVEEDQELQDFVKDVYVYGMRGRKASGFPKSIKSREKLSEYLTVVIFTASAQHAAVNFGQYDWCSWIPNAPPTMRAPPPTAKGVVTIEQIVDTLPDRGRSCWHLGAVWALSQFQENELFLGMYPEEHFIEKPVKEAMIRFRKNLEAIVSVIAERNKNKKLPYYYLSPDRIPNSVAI
# Description: RBL-1 cells (CRL 1378) were obtained from the American Type Culture Collection, Rockville, MD. DMEM and glutamine were purchased from Flow Labs, McLean, Va. FBS (Gibco, Grand Island, N.Y.) was heat-inactivated for 1 hour at 56° C. Reagents for protein determinations were obtained from Biorad, Rockville Center, N.Y. Arachidonic acid (approx. 99%), ATP (disodium salt), BHT, dextran (clinical grade), tetrasodium EDTA, gelatin, gentamycin sulfate solution, reduced glutathione, 1 M HEPES buffer, indomethacin, NaCl, reduced NADPH, Trizma 7.2, and Trizma 8.5 were purchased from Sigma Chemical, St. Louis, Mo. CaCL2 dihydrate, Norit A charcoal, and citric acid monohydrate were obtained from Fisher Scientific, Pittsburgh, Pa. […] A synthetic 5-HETE standard was supplied by Dr. M. Rosenberger, Dept. of Medicinal Chemistry, Hoffmann La-Roche, Nutley, N.J.; [see Corey, E. J., and Hashimoto, S. (1981) Tet. […] Approximately 7-9 days after thawing, RBL-1 cells growing in log phase were seeded at a density of 7500 viable cells/ml in a closed 89-liter spinner flask. […] RBL-1 cells were harvested by centrifugation at 4° C. at 1500×g for 10 minutes and were washed 3 times with ice cold 0.05M tris-hCl, pH 7.2, tetrasodium EDTA (buffer 1). The cells were washed last in 0.05M Tris-HCl containing 14 μM indomethacin, 1 mM glutathione, 1.5 mM NaCl, and 1 mM tetrasodium EDTA (buffer 2), resuspended at a density of 5×108'/ml approximately 10 ml) and disrupted manually at 4° C. using a 40 ml Dounce (type A pestle) homogenizer. After 5 minutes of homogenization, 95% cell lysis was confirmed by phase contrast microscopy. The broken cells were diluted 1:2 with buffer 2 and centrifuged at 12,380×g for 10 minutes at 4° C. to pellet cellular debris and granules. The 12,380×g supernatant was centrifuged at 113,000×g for 60 minutes to pellet microsomes. The high-speed supernatant (5.9±0.48 mg/ml protein) was frozen immediately in 1 ml aliquots using a dry ice/acetone bath. The isolated cytosolic fraction was stored in liquid N2 for up to 8 weeks without loss of 5-LO enzyme activity. Compounds were dissolved at 25 mM concentration in DMSO, then diluted to final concentrations using 95% ethanol. For a typical enzyme assay, the partially purified 5-LO preparation was preincubated with drug or vehicle for 10 minutes at 30° C. The assay tubes were then transferred at a 37° C. water bath where they received arachidonic acid (8.25 μM final concentration) to initiate 5-LO activity. […] The samples were immediately cooled on ice and neutralized by dilution with 0.05M Tris-HCl, pH 8.5, which contained 25 mg/1 BHT. A boiled cytosol control was placed at the end of each assay to emasure non-enzymatic oxidation of arachidonic acid. […] Under the assay conditions described, the 5-LO catalyzed the conversion of arachidonic acid to 5-HPETE which, as a consequence of peroxidase activity, was reduced to 5-HETE. A specific radioimmunoassay was employed to quantitate the amount (pmoles) of 5-HETE formed during the enzyme reaction. To prepare the immunogen, Dr. M. Rosenberger (Dept. of Medicinal Chemistry) converted the racemic 5-HETE lactone (Corey, E. J., and Hashimoto, S. (1981) Tet. Letters, 22, 299-302) to its hydrazine derivative. The hydrazide was conjugated to thiolated Keyhole Limpet Hemocyanin (Young, […]., and Rokach, J. (1982) Prostaglandins 23, 603-613) using N-ethyl-maleimide as previously described for LTB4 by (Young, R., N, Zomboni, R. and Rokach, J. 91983) Prostaglandins, 26, 605-613). New Zealand White rabbits received multiple intradermal injections on their backs with […] conjugate emulsified in complete Freund's adjuvant. A schedule of injections reported by Salmon (Salmon, J. A. (1978) Prostaglandins, 15, 383-397) was followed. After the monthly i.p. booster injections, blood was obtained from the marginal ear vein 5-7 days later and assessed for antibody titer. […]
# Carrageenan pleurisy = assay: Carrageenan Pleurisy Test (In Vivo); set-up: species or system male Lewis rats; conditions: Rattus norvegicus, po, read-out: Rat Carrageenan Pleurisy % Inhib. of Exudate Volume
# Description: The animals utilized in these studies were male Lewis rats (Charles River Breeding Laboratories) weighing between 230-250 g. […] At 5 or 24 hours after CG injection, the rats were killed by decapitation, exsanguinated, and the pleural cavity exposed by cutting the ribs on both sides of the sternum. The exudate fluid was removed from the pleural cavity with disposable plastic pipettes and its volume quantitated. The pleural cavity was then washed once with phosphate buffered saline containing fetal bovine serum (1:1) and the washings combined with the exudate. The total number of cells in the pleural cavity was quantitated using a Coulter Counter (Model ZM) adjusted to exclude any contaminating RBC. (Published in "Plant Flavonoids in Biology & Medicine: Biochemical, Pharmacological and Structure-Activity Relationships" p. 231-242 (1986) Alan R. Liss, Inc.)
compound,measurement,setting,value
"CCCc1c(OCCCCCC(=O)c2cc(O)c(O)cc2F)ccc(C(=O)O)c1O [4-[[6-(2-Fluoro-4,5-dihydroxyphenyl)-6-oxohexyl]oxy]-2-hydroxy-3-propylbenzoic acid]",Rat Acetic Acid Colitis Model % Inhib. of Myeloperoxidase Accumulation,[1]; 10 mg/kg p.o,40 ± 5%
"CCCc1c(OCCCCCc2c(O)c(O)cc(Cl)c2Cl)ccc(C(=O)O)c1O [4-[5-(2,3-Dichloro-5,6-dihydroxyphenyl)pentyloxy]-2-hydroxy-3-propylbenzoicacid]",Rat Acetic Acid Colitis Model % Inhib. of Myeloperoxidase Accumulation,[1]; 1 mg/kg p.o,73 ± 5%
"CCCc1c(OCCCCCCc2cc(C)c(O)c(O)c2C)ccc(C(=O)O)c1O [4-[[6-(3,4-Dihydroxy-2,5-dimethylphenyl)hexyloxy]-2-hydroxy-3-propylbenzoicacid]",Rat Acetic Acid Colitis Model % Inhib. of Myeloperoxidase Accumulation,[1]; 3 mg/kg p.o,37 ± 6%
same,Rat Acetic Acid Colitis Model % Inhib. of Myeloperoxidase Accumulation,[1]; 10 mg/kg p.o,85 ± 13%
"CCCc1c(OCCCCCc2c(Cl)ccc(O)c2O)ccc(C(=O)O)c1O [4-[5-(2-Chloro-5,6-dihydroxyphenyl)pentyloxy]-2-hydroxy-3-propylbenzoic acid]",Rat Acetic Acid Colitis Model % Inhib. of Myeloperoxidase Accumulation,[1]; 3 mg/kg p.o,54 ± 9%
"CCCc1c(OCCCCCCc2cccc(O)c2O)ccc(C(=O)O)c1OC(C)=O [2-Acetyloxy-4-[6-(2,3-dihydroxyphenyl)hexyloxy]-3-propylbenzoic acid]",pIC50,[2],6.72
same,inhibition in vivo at 100 mg/kg,Carrageenan pleurisy; at 100 mg/kg p.o,42%
"CCCc1c(OCCCc2cccc(O)c2O)ccc(C(=O)O)c1O [4-[3-(2,3-Dihydroxyphenyl)propoxy]-2-hydroxy-3-propylbenzoic acid]",Rat Acetic Acid Colitis Model % Inhib. of Myeloperoxidase Accumulation,[1]; 10 mg/kg p.o,54 ± 5%
"Nc1cc(C(=O)O)ccc1OCCCCCCc1cccc(O)c1O [3-Amino-4-[6-(2,3-dihydroxyphenyl)hexyloxy]benzoic acid]",Rat Acetic Acid Colitis Model % Inhib. of Myeloperoxidase Accumulation,[1]; 1 mg/kg p.o,55 ± 7%
"CCCc1c(OCCCCCCc2cccc(OC(C)=O)c2OC(C)=O)ccc(C(=O)O)c1O [4-[6-[2,3-Bis(acetyloxy)phenyl]hexyloxy]-2-hydroxy-3-propylbenzoic acid]",pIC50,[2],6.82
same,inhibition in vivo at 75 mg/kg,Carrageenan pleurisy; at 75 mg/kg p.o,43%
"CCCc1c(OCCCCCc2c(O)c(O)c(Cl)c(Cl)c2Cl)ccc(C(=O)O)c1O [4-[5-(2,3,4-Trichloro-5,6-dihydroxyphenyl)pentyloxy]-2-hydroxy-3-propylbenzoic acid]",Rat Acetic Acid Colitis Model % Inhib. of Myeloperoxidase Accumulation,[1]; 1 mg/kg p.o,115 ± 21%
"CCCc1c(OCCc2ccc(O)c(O)c2)ccc(C(=O)O)c1O [4 [2 (3,4 Dihydroxyphenyl)ethoxy]-2 hydroxy 3 propylbenzoic acid]",Rat Acetic Acid Colitis Model % Inhib. of Myeloperoxidase Accumulation,[1]; 10 mg/kg p.o,56 ± 6%
"CCCc1c(OCCCCCCc2cccc(O)c2O)ccc(C(C)=O)c1O [1-[4-[6-(2,3-Dihydroxyphenyl)hexyloxy]]",Rat Acetic Acid Colitis Model % Inhib. of Myeloperoxidase Accumulation,[1]; 10 mg/kg p.o,51 ± 5%
"CCCc1c(OCCCCCc2ccc(O)c(O)c2)ccc(C(C)=O)c1O [1-[4-[5-(3,4-Dihydroxyphenyl)pentyloxy]-2-hydroxy-3-propylphenyl]-1-ethanone]",Rat Acetic Acid Colitis Model % Inhib. of Myeloperoxidase Accumulation,[1]; 10 mg/kg p.o,52 ± 6%
"CCCc1c(OCCCCCC(=O)c2ccc(O)c(O)c2)ccc(C(=O)O)c1O [4-[[6-(3,4-Dihydroxyphenyl)-6-oxohexyl]oxy]-2-hydroxy-3-propylbenzoic acid]",inhibition at 1 µM,"[2]; read-out: Inhib. of Δ^5 Lipoxygenase, % inhibition at 1 μM",51%
